One experiment deals with HCT-116. As to the kind of experiment: Sphere formation assay (5% FBS). Type of experiment: cell-based. Also on record: key: Y indicates the presence of spheres following SC-1 treatment. The protocol: (§1) The 7 colon tumor lines were seeded in […] tissue culture treated dishes (Falcon) at low density (62,500 cells/ml) in complete media containing 5% FBS one day prior to addition of 0.1 µM SC-1 (final cell concentration 31,250 cells/ml). Photomicrographs were prepared on day 1 and day 5 following compound treatment utilizing a Zeiss XM inverted microscope and CCD cooled-camera imaging system. Nonadherent spheres were defined as floating, circular structures with well defined borders. Occasionally, exceptionally large spheres re-adhered to the tissue culture surface. Aggregates of floating cells or grape-like clusters were not considered spheres.

A further experiment concerns HT29. As to the kind of experiment: Sphere formation assay (5% FBS). Also on record: key: Y indicates the presence of spheres following SC-1 treatment. Type of experiment: cell-based. Here is the method:
as §1

Another experiment deals with COLO 205. Briefly: Sphere formation assay (5% FBS). On the set-up: key: Y indicates the presence of spheres following SC-1 treatment. Type of experiment: cell-based. The protocol: as §1
Experiment [1] has as its system OCT4. As to the kind of experiment: Immunoblotting of OCT4 in HCC-2998. To be noted: 0.1 µM SC-1. The format is cell-based. Here is the method:
(§2) Standard protein electrophoretic techniques were followed using previously published protocols. For these studies, the colon lines were cultured for 5 days with and without treatments, harvested with trypsin (0.25% trypsin 0.5 mM EDTA, Invitrogen), counted and lysed with a whole cell lysis buffer (10 mM Tris, 1.0 mM EDTA, 50 mM NaCl, 0.5% deoxycholate, 0.5% NP-40, 0.5% SDS, 1.0 mM PMSF, and aprotonin and a cocktail of phosphatase and protease inhibitors). The whole cell lysate was heated to 100°C for 10 min and then fractionated (1000 g, 10 min, 4°C). Protein concentrations were measured with the Pierce BCA Protein Assay. Twenty to 40 µg of protein lysate per lane were loaded onto 10% SDS polyacrylamide gels (Ready-Gels, Biorad) with Laemmli buffer. For immunoblotting, the primary antibodies were diluted in Tween/Tris wash buffer (0.1 mM Tris-HCl pH 7.5, 2.5% Tween-20, 150 mM NaCl) and 5% BSA or nonfat dry milk and incubated overnight at 4°C. Visualization of specific bands was accomplished with an alkaline phosphatase-labeled secondary anti-immunoglobulin antibody and the ECF Chemifluorescent reagent (GE Amersham). Pixel intensity of the imaged bands was measured using STORM (GE Amersham) and Image Quant Software. Normalization for loading was accomplished by reprobing with an anti-actin antibody, quantification of pixel intensity and data normalization.

The target of experiment [2] is T1, RSK2 (Homo sapiens, UniProt P51812). Briefly: In vitro kinase inhibition assay (modified Nguyen et al.). To be noted: RSK2 N-terminal domain; mean±SD, n = 5; concentration inhibiting 50% of control activity. Type of experiment: biochemical. The protocol: (§3) The RSK2 in vitro kinase inhibition assay utilized was a modification of protocols established by Nguyen et al.. Additional protocols that confirmed the results depicted in Figure 4 and evaluated kinase inhibitory activity in a random selection of protein kinases (Table 3) were conducted at Reaction Biology Corporation (Malvern, PA). This was a miniaturized ^33P-based screening assay.

A further experiment has as its target T2, PIM1 (Homo sapiens, UniProt P11309).
T2 construct: purchased Reaction Biology Corporation (Malvern, PA), contract assay
Briefly: Miniaturized 33P-based kinase screening assay. The format is biochemical. The following applies: max 10 µM, 3-fold serial dilution, n = 2. The protocol: as §3

The target of another experiment is T3, RSK3 (Homo sapiens, UniProt Q15349).
T3 construct: purchased Reaction Biology Corporation (Malvern, PA), contract assay
Briefly: Miniaturized 33P-based kinase screening assay. Type of experiment: biochemical. The following applies: max 10 µM, 3-fold serial dilution, n = 2. The protocol: as §3

A further experiment has as its target T4, p70S6K (Homo sapiens, UniProt P23443).
T4 construct: purchased Reaction Biology Corporation (Malvern, PA), contract assay
Briefly: Miniaturized 33P-based kinase screening assay. Type of experiment: biochemical. To be noted: max 10 µM, 3-fold serial dilution, n = 2. Here is the method: as §3

Experiment [3] concerns the target T1, RSK2. Briefly: Miniaturized 33P-based kinase screening assay. The format is biochemical. To be noted: max 10 µM, 3-fold serial dilution, n = 2. The protocol: as §3
The target of a further experiment is T5, RSK1 (Homo sapiens, UniProt Q15418).
T5 construct: purchased Reaction Biology Corporation (Malvern, PA), contract assay
Briefly: Miniaturized 33P-based kinase screening assay. The format is biochemical. The following applies: max 10 µM, 3-fold serial dilution, n = 2. Here is the method:
as §3

A further experiment addresses T6, RSK4 (Homo sapiens, UniProt Q9UK32).
T6 construct: purchased Reaction Biology Corporation (Malvern, PA), contract assay
Briefly: Miniaturized 33P-based kinase screening assay. Type of experiment: biochemical. The following applies: max 10 µM, 3-fold serial dilution, n = 2. The protocol:
as §3

In another experiment the target is T7, Abl1 (Homo sapiens, UniProt P00519).
T7 construct: purchased Reaction Biology Corporation (Malvern, PA), contract assay
As to the kind of experiment: Miniaturized 33P-based kinase screening assay. Type of experiment: biochemical. The following applies: max 10 µM, 3-fold serial dilution, n = 2. Here is the method: as §3

The next experiment addresses T8, PLK2 (Homo sapiens, UniProt Q9NYY3).
T8 construct: purchased Reaction Biology Corporation (Malvern, PA), contract assay
As to the kind of experiment: Miniaturized 33P-based kinase screening assay. Type of experiment: biochemical. To be noted: max 10 µM, 3-fold serial dilution, n = 2. Here is the method:
as §3

The test system of another experiment is HCT-15. As to the kind of experiment: Limiting dilution tumorigenicity with Matrigel co-injection. Also on record: key to Tumorigenicity: Y indicates increased tumor formation or increased time to appearance or both.; Y ^%: Y indicates increased tumor formation when Matrigel was co-injected. The format is in vivo, NOD.SCID mice. The text has this:
To explore the lack of a tumorigenic effect for SC-1 treated HCT-15 cells, the limiting dilution tumorigenicity assay was repeated with the addition of Matrigel to the injected cells (10, 100, 1000, and 10000 cells per injection). A protein support such as Matrigel may provide anchoring, a substrate for angiogenesis, and growth factors. […] For SC-1 treated cells co-injected with Matrigel, 5 of 5 mice had tumor formation over the 99 day observation period at the 10 cell inoculum (Figure 1).
Six week old female NOD.SCID mice were randomly assigned to each of 20 treatment arms (n = 5/group). Treated and control colon tumor lines were enzymatically harvested and counted prior to dilution in RPMI 1640 (at 10, 100, 1,000, 10,000 cells/inoculum) for subcutaneous injection into the axillary region using a volume of […]. Positive control groups were established such that tumor formation occurred in all mice in approximately one week thus confirming that all tumor lines studied were tumorigenic. Cell inocula for the positive control groups ranged from 1×10^6 to 2.5×10^6. Cell viability of the cell stocks was assessed by trypan blue exclusion prior to dilution for injection and was routinely found to be >95%. Tumor formation was monitored weekly using caliper measurements and the tumor mass was calculated as weight in mg = 1/2×(tumor length)×(tumor width)^2. All experiments were terminated at 120 days or when tumor weight exceeded 2000 mg for any individual mouse. In selected studies, tumor cells were resuspended in Matrigel (50% concentration, BD Biosciences) prior to injection.

Experiment [4] concerns OCT4. Briefly: Immunoblotting of OCT4 in remaining colon tumor lines. The format is cell-based. The following applies: 0.1 µM SC-1. Here is the method:
as §2

The test system of another experiment is phospho-ERK1/2. On the set-up: method as in PMID 17088537. To be noted: murine embryonic stem cells; 30 minutes of exposure; cited from earlier work.
Experiment [5] has as its system RSK2. Briefly: Immunoblotting of RSK2 protein levels in COLO 205. Type of experiment: cell-based. To be noted: 5 days of exposure to 0.1 µM SC-1. Here is the method:
Since SC-1 inhibited RSK2 kinase activity, we first determined if RSK2 protein levels were altered.
as §2, with “Visualization of specific bands was accomplished with an alkaline phosphatase-labeled secondary anti-immunoglobulin antibody and the ECF Chemifluorescent reagent (GE Amersham).” left out

T1 sequence (P51812 whole entry, species assumed, the tested form may be a part): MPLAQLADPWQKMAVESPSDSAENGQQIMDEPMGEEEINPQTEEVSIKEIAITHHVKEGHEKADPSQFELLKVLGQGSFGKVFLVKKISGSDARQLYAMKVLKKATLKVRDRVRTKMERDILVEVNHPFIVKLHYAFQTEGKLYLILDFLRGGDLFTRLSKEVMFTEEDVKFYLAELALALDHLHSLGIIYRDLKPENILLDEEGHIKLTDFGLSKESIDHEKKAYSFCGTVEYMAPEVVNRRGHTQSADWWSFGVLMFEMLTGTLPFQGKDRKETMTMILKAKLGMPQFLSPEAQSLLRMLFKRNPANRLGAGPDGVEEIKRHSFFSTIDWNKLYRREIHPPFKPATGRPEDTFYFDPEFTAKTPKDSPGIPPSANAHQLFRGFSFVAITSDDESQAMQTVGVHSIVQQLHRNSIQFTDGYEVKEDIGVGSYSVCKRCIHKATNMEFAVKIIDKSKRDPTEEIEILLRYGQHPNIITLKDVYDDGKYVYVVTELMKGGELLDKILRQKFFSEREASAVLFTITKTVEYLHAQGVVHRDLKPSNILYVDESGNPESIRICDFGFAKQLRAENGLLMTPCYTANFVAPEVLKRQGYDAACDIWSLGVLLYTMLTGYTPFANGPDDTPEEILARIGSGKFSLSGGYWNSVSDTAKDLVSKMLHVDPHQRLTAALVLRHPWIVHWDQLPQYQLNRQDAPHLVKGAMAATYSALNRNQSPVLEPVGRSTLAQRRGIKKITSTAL
T3 sequence (Q15349 whole entry): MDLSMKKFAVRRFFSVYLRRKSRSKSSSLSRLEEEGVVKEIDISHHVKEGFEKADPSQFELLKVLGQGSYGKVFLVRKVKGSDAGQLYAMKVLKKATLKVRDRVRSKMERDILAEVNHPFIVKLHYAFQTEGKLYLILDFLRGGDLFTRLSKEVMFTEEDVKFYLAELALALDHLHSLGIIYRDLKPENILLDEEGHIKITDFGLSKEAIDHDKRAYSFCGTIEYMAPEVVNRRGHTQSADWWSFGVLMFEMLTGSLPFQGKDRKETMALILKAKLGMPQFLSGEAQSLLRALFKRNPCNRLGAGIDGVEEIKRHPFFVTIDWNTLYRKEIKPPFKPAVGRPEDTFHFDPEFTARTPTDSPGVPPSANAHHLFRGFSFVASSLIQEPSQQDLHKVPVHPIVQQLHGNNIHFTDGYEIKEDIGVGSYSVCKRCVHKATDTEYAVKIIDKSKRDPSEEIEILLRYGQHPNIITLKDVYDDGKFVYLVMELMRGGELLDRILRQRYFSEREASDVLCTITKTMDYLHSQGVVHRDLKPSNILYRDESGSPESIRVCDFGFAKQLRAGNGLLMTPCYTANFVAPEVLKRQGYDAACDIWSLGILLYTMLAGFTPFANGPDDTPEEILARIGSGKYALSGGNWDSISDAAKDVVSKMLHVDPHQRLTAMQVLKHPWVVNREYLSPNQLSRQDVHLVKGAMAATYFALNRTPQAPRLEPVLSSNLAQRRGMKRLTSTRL
T5 sequence (Q15418 whole entry): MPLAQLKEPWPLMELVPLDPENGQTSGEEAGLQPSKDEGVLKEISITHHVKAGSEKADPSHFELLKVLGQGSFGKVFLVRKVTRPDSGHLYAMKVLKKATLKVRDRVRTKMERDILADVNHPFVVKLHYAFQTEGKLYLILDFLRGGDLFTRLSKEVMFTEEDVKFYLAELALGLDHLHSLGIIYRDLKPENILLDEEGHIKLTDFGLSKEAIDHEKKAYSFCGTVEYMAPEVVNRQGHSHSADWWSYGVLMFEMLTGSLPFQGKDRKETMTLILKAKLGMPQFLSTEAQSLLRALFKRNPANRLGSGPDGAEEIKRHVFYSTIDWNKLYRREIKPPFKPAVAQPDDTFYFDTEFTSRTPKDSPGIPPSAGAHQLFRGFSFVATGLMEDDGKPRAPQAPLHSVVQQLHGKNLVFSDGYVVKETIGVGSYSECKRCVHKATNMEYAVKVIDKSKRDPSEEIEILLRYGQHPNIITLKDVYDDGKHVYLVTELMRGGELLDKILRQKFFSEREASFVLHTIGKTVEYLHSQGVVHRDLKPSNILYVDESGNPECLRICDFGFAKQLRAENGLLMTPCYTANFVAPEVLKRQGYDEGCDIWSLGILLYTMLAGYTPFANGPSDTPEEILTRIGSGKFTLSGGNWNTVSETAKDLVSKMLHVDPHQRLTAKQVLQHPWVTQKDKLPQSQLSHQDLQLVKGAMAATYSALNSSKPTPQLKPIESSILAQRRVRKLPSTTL
T4 sequence (P23443 whole entry): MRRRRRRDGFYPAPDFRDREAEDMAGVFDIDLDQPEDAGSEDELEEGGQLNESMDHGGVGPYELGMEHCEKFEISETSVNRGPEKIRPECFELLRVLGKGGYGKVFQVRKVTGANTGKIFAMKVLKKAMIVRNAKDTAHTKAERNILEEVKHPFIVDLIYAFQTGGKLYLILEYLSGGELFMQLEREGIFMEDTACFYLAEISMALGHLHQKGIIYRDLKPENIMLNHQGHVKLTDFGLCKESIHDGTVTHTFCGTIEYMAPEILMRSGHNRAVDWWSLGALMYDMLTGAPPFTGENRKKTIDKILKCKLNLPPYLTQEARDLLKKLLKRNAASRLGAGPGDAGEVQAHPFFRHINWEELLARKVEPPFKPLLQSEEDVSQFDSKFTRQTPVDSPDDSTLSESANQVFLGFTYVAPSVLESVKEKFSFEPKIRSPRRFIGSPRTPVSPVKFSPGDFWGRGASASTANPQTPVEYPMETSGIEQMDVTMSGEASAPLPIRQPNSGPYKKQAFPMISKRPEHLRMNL
T8 sequence (Q9NYY3 whole entry): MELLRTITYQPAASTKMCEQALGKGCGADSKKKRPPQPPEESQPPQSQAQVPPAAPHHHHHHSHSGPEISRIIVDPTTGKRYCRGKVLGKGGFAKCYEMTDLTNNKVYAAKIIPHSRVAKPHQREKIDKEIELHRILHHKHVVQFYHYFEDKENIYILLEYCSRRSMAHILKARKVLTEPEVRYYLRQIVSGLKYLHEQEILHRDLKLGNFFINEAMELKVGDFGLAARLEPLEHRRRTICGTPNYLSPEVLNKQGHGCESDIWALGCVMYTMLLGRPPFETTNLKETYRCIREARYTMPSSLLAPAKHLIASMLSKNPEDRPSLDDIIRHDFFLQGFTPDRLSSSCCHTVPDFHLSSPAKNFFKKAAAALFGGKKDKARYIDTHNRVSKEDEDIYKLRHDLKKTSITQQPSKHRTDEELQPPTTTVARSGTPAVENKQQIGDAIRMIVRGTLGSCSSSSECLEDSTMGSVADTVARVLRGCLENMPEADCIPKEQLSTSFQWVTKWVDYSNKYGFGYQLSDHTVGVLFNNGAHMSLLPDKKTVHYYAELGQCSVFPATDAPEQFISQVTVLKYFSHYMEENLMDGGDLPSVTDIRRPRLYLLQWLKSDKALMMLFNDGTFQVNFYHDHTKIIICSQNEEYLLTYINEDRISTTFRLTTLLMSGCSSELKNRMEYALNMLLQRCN
T7 sequence (P00519 whole entry): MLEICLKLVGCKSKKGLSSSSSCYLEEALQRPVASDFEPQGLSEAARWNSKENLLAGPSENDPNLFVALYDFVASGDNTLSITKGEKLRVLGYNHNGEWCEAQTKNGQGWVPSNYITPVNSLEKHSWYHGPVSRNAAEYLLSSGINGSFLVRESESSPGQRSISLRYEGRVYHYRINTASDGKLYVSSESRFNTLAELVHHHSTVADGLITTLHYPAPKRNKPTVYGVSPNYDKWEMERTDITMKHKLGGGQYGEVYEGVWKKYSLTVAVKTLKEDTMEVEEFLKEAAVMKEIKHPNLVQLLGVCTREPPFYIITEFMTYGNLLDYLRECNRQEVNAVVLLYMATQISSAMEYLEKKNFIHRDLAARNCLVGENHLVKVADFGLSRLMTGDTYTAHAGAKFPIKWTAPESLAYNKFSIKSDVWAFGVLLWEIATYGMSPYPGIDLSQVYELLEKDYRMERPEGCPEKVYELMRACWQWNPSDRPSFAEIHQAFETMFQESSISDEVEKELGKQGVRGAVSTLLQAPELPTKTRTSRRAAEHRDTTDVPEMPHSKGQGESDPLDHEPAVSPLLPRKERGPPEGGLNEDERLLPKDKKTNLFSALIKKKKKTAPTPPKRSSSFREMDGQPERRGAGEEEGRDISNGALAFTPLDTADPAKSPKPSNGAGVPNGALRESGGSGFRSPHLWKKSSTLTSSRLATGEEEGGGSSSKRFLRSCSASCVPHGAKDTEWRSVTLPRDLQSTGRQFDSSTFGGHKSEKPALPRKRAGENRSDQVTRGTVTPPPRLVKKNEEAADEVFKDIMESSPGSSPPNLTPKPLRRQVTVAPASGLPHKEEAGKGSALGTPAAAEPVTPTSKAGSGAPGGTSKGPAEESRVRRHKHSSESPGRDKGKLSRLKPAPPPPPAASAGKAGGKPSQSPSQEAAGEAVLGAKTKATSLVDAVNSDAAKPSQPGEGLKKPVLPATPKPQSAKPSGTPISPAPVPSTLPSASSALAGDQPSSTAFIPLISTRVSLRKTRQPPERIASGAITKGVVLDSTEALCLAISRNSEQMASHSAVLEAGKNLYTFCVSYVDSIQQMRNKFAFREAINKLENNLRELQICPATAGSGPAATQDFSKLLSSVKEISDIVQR
T2 sequence (P11309 whole entry): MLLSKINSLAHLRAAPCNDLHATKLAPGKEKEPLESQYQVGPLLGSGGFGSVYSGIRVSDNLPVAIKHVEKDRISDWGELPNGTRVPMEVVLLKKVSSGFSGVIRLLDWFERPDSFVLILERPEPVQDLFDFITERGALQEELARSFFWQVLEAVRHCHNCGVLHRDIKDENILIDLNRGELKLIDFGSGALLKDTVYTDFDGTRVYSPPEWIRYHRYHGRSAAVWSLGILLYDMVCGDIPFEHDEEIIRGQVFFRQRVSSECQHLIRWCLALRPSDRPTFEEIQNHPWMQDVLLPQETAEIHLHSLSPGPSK

Turning to `Cc1cc(Nc2ncc3c(n2)N(C)C(=O)N(c2cc(NC(=O)c4cccc(C(F)(F)F)c4)ccc2C)C3)n(C)n1` [SC-1], the Sphere formation result is “uniform nonadherent spheres with well-defined borders formed” in the experiment with HCT-116 (0.1 µM SC-1, 5% FBS, 24 hrs); “Y” in the experiment on HCT-116 (summary of SC-1 effects); “uniform nonadherent spheres with well-defined borders formed” in the experiment with HT29 (0.1 µM SC-1, 5% FBS, 24 hrs); “Y” with HT29 (summary of SC-1 effects); “sphere formation occurred in a fraction” in the experiment with COLO 205 (0.1 µM SC-1, 5% FBS); “Y” with COLO 205 (summary of SC-1 effects). Further, the OCT4 protein expression result with OCT4 [1] is on record as “increased”; in the experiment on OCT4 [4], “unchanged or decreased”. Moreover, on RSK2 [2], a half-maximal response (EC50) required 2.5 ± 1.8 µM. Further, the IC50 against PIM1 is at least 10 µM; at RSK3, 3.3 µM; against p70S6K it was 1.4 µM; against RSK2 [3], 2.5 µM; against RSK1, 0.5 µM; on RSK4, 10 µM. Further, the IC50 was determined as 0.005 µM at Abl1 and 2.2 µM on PLK2. Besides, the Tumor formation result with HCT-15 (HCT-15, 100, 1000, and 10000 cells per injection with Matrigel) was “tumors formed in all mice”. In the experiment on HCT-15 (HCT-15, Matrigel co-injected, summary of SC-1 effects), the Tumorigenicity result is “Y ^%”. Besides, the “Tumor formation (take rate)” value in the experiment on HCT-15 (HCT-15 SC-1 treated, 10 cell inoculum co-injected with Matrigel, 99 day observation) is 5 of 5. Moreover, the phospho-ERK1/2 protein levels result with phospho-ERK1/2 is recorded as “inhibited”. For the same molecule, the “Decrease of RSK2 protein levels” value in the experiment with RSK2 [5] is recorded as 33%.

Source of the values: paper PMC3578829, “A Small Molecule (Pluripotin) as a Tool for Studying Cancer Stem Cell Biology: Proof of Concept” (PLoS ONE, 2013).
